Earlier results as cited in US8679548B2, “Active bromine containing biocidal compositions and their preparation” (Albemarle Corporation, priority 1998, dated 2014).

SMILES | Vapor Pressure (25° C.)
BrBr [Bromine (Br2), Bromine] | 214 mm
ClBr [Bromine Chloride (BrCl), Bromine Chloride] | 1800 mm
